Assay results taken from publication PMC7339578, “Multiple circulating alkaloids and saponins from intravenous Kang-Ai injection inhibit human cytochrome P450 and UDP-glucuronosyltransferase isozymes: potential drug–drug interactions” (Chinese Medicine, 2020).

How the values were obtained:
[1] = Biliary (hepatobiliary) excretion in rats after a 30-min infusion of Kang-Ai injection; assay type: in vivo, Sprague–Dawley rats
Description: (§1) For urine sampling, the rats were housed singly in metabolic cages. And then, the urine samples were collected at 0–4, 4–8 and 8–12 h after starting infusion and were weighed. Likewise, bile samples were also collected at 0–3, 3–6, 6–9 and 9–12 h after starting infusion and were weighed. The urine and bile collection tubes were all frozen at − 80 °C.
(§2) Pharmacokinetic parameters were estimated by non-compartmental analysis using WinNonlin 6.3 software (Pharsight, NC, US). Data are presented as the mean ± SD (n = 3). The area under the concentration–time curve up to the last measured point in time (AUC0-t) was calculated using the trapezoidal rule. The total plasma clearance (CLtot, p) was calculated by dividing the compound dose by the AUC0-∞, and the distribution volume at steady state (VSS) was estimated by multiplying the CLtot, p by the mean residence time (MRT). The renal excretory clearance (CLR) and hepatobiliary (CLB) was determined by dividing the cumulative amount excreted into urine (Cum.Ae-U) and bile (Cum.Ae-B) by the plasma AUC0-∞, respectively. The fractions of dose excreted into urine (fe-U) and the fractions of dose excreted into bile (fe-B) were established using the relationship Cum.Ae-U/Dose and Cum.Ae-B/Dose, respectively. Mean differences between treatment and control groups were analyzed by two-tailed unpaired Student’s t test by Graphpad Prism V5 software (SanDiego, CA). The level of significance was set at p < 0.05 (∗), p < 0.01 (∗∗) or p < 0.001 (∗∗∗).

[2] = Plasma pharmacokinetics in rats after a 30-min intravenous infusion of Kang-Ai injection; assay type: in vivo, Sprague–Dawley rats; settings: rat, in vivo, iv
Description: Specific pathogen free (SPF) grade male Sprague–Dawley rats (250 ± 20) g were provided by the Experimental Animal Center of Zhengzhou University (Zhengzhou, China). These rats were kept in a designated animal room at constant temperature (22 ± 2) °C and humidity (50 ± 20) % with 12 h of light/dark per day and free access to water and food. All protocols of animal experiments were approved in accordance with the Regulations of Experimental Animal Administration issued by the Ethics Review Committee for Animal Experimentation of Jinan University (Ethical Review NO. 20190301010). Prior to the experiments, the rats were fasted for 12 h but with free access to water. After study use, the rats were euthanized with CO2 gas.
The rats in this study all received a single 30-min intravenous infusion of Kang-Ai injection via the tail veins using TYD01-02 infusion pumps (Lead Fluid, Baoding, China). The dose was derived from the label daily dose of Kang-Ai injection (60 mL/person, once daily) according to dose normalization by body surface area. For plasma pharmacokinetic studies, the rats were randomly received a single intravenous 30 min-bolus dose at 6 mL/kg. Blood samples (100 μL) were collected from the rats’ external jugular veins into heparinized polypropylene tubes at 5, 15, 30, 45 min, and 1, 1.5, 2, 3, 4, 6, 8, 12 h. After gently shaking for 10 s, the blood samples were centrifuged at 13000 g for 10 min to yield plasma samples, which were kept frozen at − 80 °C until analysis.
as §2

[3] = Urinary (renal) excretion in rats after a 30-min infusion of Kang-Ai injection; assay type: in vivo, Sprague–Dawley rats
Description: as §1, §2

[4] = Protein binding assay (equilibrium dialysis); assay type: in vitro ADME, rat; settings: rat, plasma
Description: Binding of circulating alkaloids and saponins to rat plasma was measured by equilibrium dialysis using Spectra/Por 2 dialysis membranes (molecular weight cutoff, 12–14 kDa; Rancho Dominguez, CA, USA) as described. After equilibrating for 24 h at 55 rpm and 37 °C, the dialysate and the plasma were sampled for analysis. […] The concentrations of tested matrine, oxysophocarpine and oxymatrine were 2 μmol/L, while those of astragaloside IV, III, and ginsenosides Rh1, Rg2, Rg1, Rf, Re, Rd, Rc, Rb1, Rb2, notoginsenosides R1, R2, were 4 μmol/L. The unbound fraction (fu-plasma) in rat plasma was calculated as follow: fu-plasma = Cd/Cp × 100%, where the Cd and Cp values were the concentrations of each analyte in the dialysate sample and in the post-dialysis plasma sample, respectively.

[5] = Stability tests of analytes in rat plasma QC samples; assay type: in vitro ADME; settings: rat plasma
Description: […] The dilution integrity was investigated by analyzing six replicate samples with each analyte, and each analyte were diluted 10-fold with blank rat matrix. Furthermore, the diluted samples were analyzed using freshly prepared calibration curve to calculate RE and RSD, which should be no more than ± 15% as criterion.

For `CC(C)=CCC[C@](C)(O)[C@H]1CC[C@]2(C)[C@@H]1[C@H](O)C[C@@H]1[C@@]3(C)CC[C@H](O)C(C)(C)[C@@H]3[C@@H](O[C@@H]3O[C@H](CO)[C@@H](O)[C@H](O)[C@H]3O[C@@H]3OC[C@@H](O)[C@H](O)[C@H]3O)C[C@]12C` [Compound C3, Notoginsenoside R2], the “CLB (hepatobiliary clearance)” value ([1]; rat, in vivo, iv) was 59.94 ± 6.71 mL/h, the “fe-B,0–12h (fraction of dose excreted into bile)” value ([1]; rat, in vivo, iv) was 23.55 ± 1.97% and the “AUC0–12h” value [2] was 0.08557 ± 0.01054 µM·h. The “CLtot, p” value [2] was 255.80 ± 34.97 mL/h, the Cmax [2] was 128 ± 13.3 nM and the VSS [2] was 99.30 ± 20.42 mL. For the same molecule, the t1/2 [2] was 0.29 ± 0.12 h, the “CLR (renal excretory clearance)” value ([3]; rat, in vivo, iv) was 25.62 ± 3.48 mL/h and the “fe-U,0–12h (fraction of dose excreted into urine)” value ([3]; rat, in vivo, iv) was 10.27 ± 2.49%. For the same molecule, the “fu-plasma (unbound fraction)” value [4] was 35.24 ± 2.85%.

In the case of `CC(C)=CCC[C@](C)(O)[C@H]1CC[C@]2(C)[C@@H]1[C@H](O)C[C@@H]1[C@@]3(C)CC[C@H](O)C(C)(C)[C@@H]3[C@@H](O[C@@H]3O[C@H](CO)[C@@H](O)[C@H](O)[C@H]3O[C@@H]3O[C@@H](C)[C@H](O)[C@@H](O)[C@H]3O)C[C@]12C` [Compound C5, Ginsenoside Rg2], the “fe-B,0–12h (fraction of dose excreted into bile)” value ([1]; rat bile 0–12 h, Kang-Ai injection 6 mL/kg iv) is reported as 20.76 ± 3.37%, the “At -80 °C for 48 h, Mean±SD” value ([5]; nominal conc. 20 nM) is reported as 19.84 ± 1.04 nM and the “At -80 °C for 48 h, RE” value ([5]; nominal conc. 20 nM) is reported as -6.64%. For the same molecule, the “Extracted samples at 8 °C for 18 h, Mean±SD” value (“Extracted samples … Mean±SD” below) ([5]; nominal conc. 20 nM) was 21.07 ± 0.87 nM, the “Extracted samples at 8 °C for 18 h, RE” value ([5]; nominal conc. 20 nM) was 8.32% and the “Short-term stability at room temperature for 6 h, Mean±SD” value (shortened to “Short-term stability … Mean±SD”) ([5]; nominal conc. 20 nM) was 19.68 ± 2.51 nM. The “Short-term stability at room temperature for 6 h, RE” value (from here on “Short-term stability … for 6 h, RE”) ([5]; nominal conc. 20 nM) was 12.85%, the “Three freeze-thaw cycles (-80 °C ↔ 23 °C), Mean±SD” value (shortened to “Three freeze-thaw cycles … Mean±SD”) ([5]; nominal conc. 20 nM) was 21.26 ± 1.22 nM and the “Three freeze-thaw cycles (-80 °C ↔ 23 °C), RE” value ([5]; nominal conc. 20 nM) was 11.13%. The “At -80 °C for 48 h, Mean±SD” value ([5]; nominal conc. 100 nM) was 96.95 ± 8.62 nM, the “At -80 °C for 48 h, RE” value ([5]; nominal conc. 100 nM) was -8.82% and the “Extracted samples … Mean±SD” value ([5]; nominal conc. 100 nM) was 98.05 ± 6.29 nM. For the same molecule, the “Extracted samples at 8 °C for 18 h, RE” value ([5]; nominal conc. 100 nM) was -8.46%, the “Short-term stability … Mean±SD” value ([5]; nominal conc. 100 nM) was 87.52 ± 0.79 nM and the “Short-term stability … for 6 h, RE” value ([5]; nominal conc. 100 nM) was -12.97%. The “Three freeze-thaw cycles … Mean±SD” value ([5]; nominal conc. 100 nM) was 104.41 ± 11.32 nM, the “Three freeze-thaw cycles (-80 °C ↔ 23 °C), RE” value ([5]; nominal conc. 100 nM) was 12.73% and the “At -80 °C for 48 h, Mean±SD” value ([5]; nominal conc. 400 nM) was 410.70 ± 32.70 nM. The “At -80 °C for 48 h, RE” value ([5]; nominal conc. 400 nM) was 8.22%, the “Extracted samples … Mean±SD” value ([5]; nominal conc. 400 nM) was 404.47 ± 42.95 nM and the “Extracted samples at 8 °C for 18 h, RE” value ([5]; nominal conc. 400 nM) was -10.83%. For the same molecule, the “Short-term stability … Mean±SD” value ([5]; nominal conc. 400 nM) was 361.60 ± 11.46 nM, the “Short-term stability … for 6 h, RE” value ([5]; nominal conc. 400 nM) was -11.77% and the “Three freeze-thaw cycles … Mean±SD” value ([5]; nominal conc. 400 nM) was 374.05 ± 38.03 nM. The “Three freeze-thaw cycles (-80 °C ↔ 23 °C), RE” value ([5]; nominal conc. 400 nM) was -12.71%, the Cmax ([2]; male, Sprague-Dawley) was 231 ± 17.4 nM and the clearance ([2]; male, Sprague-Dawley) was 2.63 mL/min. For the same molecule, the half-life ([2]; male, Sprague-Dawley) was 9.77 ± 13.7 h, the AUC(0-t) ([2]; male, Sprague-Dawley, AUC0–12h) was > 0.1 µM·h and the CL renal ([3]; male, Sprague-Dawley, urine and plasma, rat, Kang-Ai injection 6 mL/kg iv, read-out: CLR (renal excretory clearance) (converted)) was 0.0552 mL/min. For the same molecule, the “fe-U,0–12h (fraction of dose excreted into urine)” value ([3]; rat urine 0–12 h, Kang-Ai injection 6 mL/kg iv) was 2.23 ± 0.61% and the fraction unbound at 24 h [4] was 0.265 ± 0.0328.
